# Laboratory results from ChEMBL document CHEMBL3879915, “Methods of inhibiting PRMT5” (2014).
# Columns and labels:
# PRMT5/MEP50 complex = PRMT5/MEP50 complex (Homo sapiens, UniProt O14744); experiment: Inhibition of recombinant human fetal brain FLAG-tagged PRMT5/full length human testis 6His-tagged MEP50 expressed in baculovirus infected insect Sf9 cells using human histone H4 (1 to 15 residues) as substrate preincubated for 30 mins followed by [3H]-SAM addition
# [1] = target: Protein arginine N-methyltransferase 5 (Homo sapiens, UniProt O14744); experiment: Inhibition of PRMT5 in human Z138 cells assessed as decrease in di-methyl arginine levels after 96 hrs by Western blot method; assay type: cell-based
# [2] = Antiproliferative activity against human Z138 cells assessed as inhibition of cell viability after 5 days by Cell-Titer Glo assay; assay type: functional, cell-based; settings: Z-138, 120 h
# Protein arginine N-methyltransferase 5, sequence (O14744 whole entry): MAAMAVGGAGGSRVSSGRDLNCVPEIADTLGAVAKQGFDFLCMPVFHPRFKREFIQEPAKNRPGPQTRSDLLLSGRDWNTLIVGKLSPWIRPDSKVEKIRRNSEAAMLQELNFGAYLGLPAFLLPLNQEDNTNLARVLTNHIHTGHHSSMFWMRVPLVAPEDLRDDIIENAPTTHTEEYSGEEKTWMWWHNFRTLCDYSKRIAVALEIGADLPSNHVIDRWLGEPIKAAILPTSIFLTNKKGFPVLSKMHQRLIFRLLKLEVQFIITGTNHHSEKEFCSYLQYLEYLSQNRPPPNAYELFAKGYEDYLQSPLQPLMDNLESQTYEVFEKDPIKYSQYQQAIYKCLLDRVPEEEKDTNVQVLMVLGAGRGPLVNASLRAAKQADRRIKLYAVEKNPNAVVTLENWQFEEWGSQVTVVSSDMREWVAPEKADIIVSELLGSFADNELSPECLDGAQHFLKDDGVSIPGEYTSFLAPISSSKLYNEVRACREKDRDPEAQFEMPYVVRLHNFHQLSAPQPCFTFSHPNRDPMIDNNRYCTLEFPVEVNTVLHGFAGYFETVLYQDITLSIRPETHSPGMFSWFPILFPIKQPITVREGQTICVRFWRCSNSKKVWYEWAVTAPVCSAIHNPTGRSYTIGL
# PRMT5/MEP50 complex, sequence (O14744 whole entry, the tested form may be a part): as the sequence (O14744 whole entry) above
# PRMT5/MEP50 complex, sequence (Q9BQA1 whole entry, further chain, the tested form may be a part): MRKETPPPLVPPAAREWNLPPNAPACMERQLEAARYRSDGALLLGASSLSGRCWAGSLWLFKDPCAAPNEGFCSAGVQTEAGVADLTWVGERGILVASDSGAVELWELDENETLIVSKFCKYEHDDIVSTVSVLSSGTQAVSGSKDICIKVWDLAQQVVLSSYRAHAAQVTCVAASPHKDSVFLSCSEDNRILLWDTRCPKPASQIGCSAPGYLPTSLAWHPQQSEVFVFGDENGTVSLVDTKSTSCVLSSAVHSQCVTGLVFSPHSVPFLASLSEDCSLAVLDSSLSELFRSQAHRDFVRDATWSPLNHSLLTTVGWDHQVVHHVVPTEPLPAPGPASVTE
SMILES,IC50 (PRMT5/MEP50 complex),EC50 [1],EC50 [2]
OC(COc1cccc(-c2ccc3ncn(Cc4ccccc4)c3c2)c1)CN1CCc2ccccc2C1 (centres undefined),< 100 nM,1000 to 10000 nM,10000 to 40000 nM
OC(COc1cccc(-c2ccc3ncn(-c4ccccc4)c3c2)c1)CN1CCc2ccccc2C1 (centres undefined),101 to 1000 nM,1000 to 10000 nM,> 20000 nM
Cn1cnc2ccc(-c3cccc(NCC(O)CN4CCc5ccccc5C4)n3)cc21 (centres undefined),101 to 1000 nM,1000 to 10000 nM,> 20000 nM
Cn1ncc2ccc(OCC(=O)NCC(O)CN3CCc4ccccc4C3)cc21 (centres undefined),< 100 nM,101 to 1000 nM,1000 to 10000 nM
O=C(COc1ccc2cnn(C3CCNCC3)c2c1)NCC(O)CN1CCc2ccccc2C1 (centres undefined),< 100 nM,101 to 1000 nM,> 20000 nM
O=C(NCC(O)CN1CCc2ccccc2C1)c1cccc(CNC2CCOCC2)c1 (centres undefined),< 100 nM,101 to 1000 nM,10000 to 50000 nM
O=C(NCC(O)CN1CCc2ccccc2C1)c1cccc(-c2cc[nH]n2)c1 (centres undefined),< 100 nM,101 to 1000 nM,1000 to 10000 nM
N#Cc1ccccc1OCC(=O)NCC(O)CN1CCc2ccccc2C1 (centres undefined),101 to 1000 nM,101 to 1000 nM,10000 to 50000 nM
O=C(NC[C@H](O)CN1CCc2ccccc2C1)c1cccc(-c2ccccn2)c1,< 100 nM,< 100 nM,101 to 1000 nM
O=C(NCC(O)CN1CCc2ccccc2C1)c1cccnc1 (centres undefined),101 to 1000 nM,101 to 1000 nM,10000 to 50000 nM
O=C(NC[C@H](O)CN1CCc2ccccc2C1)c1ccccc1,< 100 nM,< 100 nM,1000 to 10000 nM
O=C(COc1cccc2c1CNCC2)NCC(O)CN1CCc2ccccc2C1 (centres undefined),< 100 nM,101 to 1000 nM,10000 to 50000 nM
CS(=O)(=O)c1ccccc1-c1cccc(OCC(O)CN2CCc3ccccc3C2)c1 (centres undefined),101 to 1000 nM,1000 to 10000 nM,> 20000 nM
Cn1cc2c(OCC(=O)NCC(O)CN3CCc4ccccc4C3)cccc2n1 (centres undefined),101 to 1000 nM,1000 to 10000 nM,> 20000 nM
Cn1cc2ccc(-c3ccnc(NCC(O)CN4CCc5ccccc5C4)c3)cc2n1 (centres undefined),< 100 nM,101 to 1000 nM,1000 to 10000 nM
OC(COc1cccc(-c2cccc(F)c2F)c1)CN1CCc2ccccc2C1 (centres undefined),101 to 1000 nM,10000 to 40000 nM,10000 to 40000 nM
CN(CC(O)CN1CCc2ccccc2C1)c1cccc(CNC2CCCC2)c1 (centres undefined),101 to 1000 nM,101 to 1000 nM,10000 to 40000 nM
O=C(c1cccc(-c2cccc(OCC(O)CN3CCc4ccccc4C3)c2)c1)N1CCCC1 (centres undefined),101 to 1000 nM,1000 to 10000 nM,10000 to 40000 nM
O=C(NCC(O)CN1CCc2ccccc2C1)c1ccccc1-c1ccccn1 (centres undefined),101 to 1000 nM,1000 to 10000 nM,> 20000 nM
O=C1Cc2ccccc2N1CC(O)CN1CCc2ccccc2C1 (centres undefined),101 to 1000 nM,101 to 1000 nM,> 20000 nM
C[C@@H](Oc1cccc2cccnc12)C(=O)NC[C@@H](O)CN1CCc2ccccc2C1,< 100 nM,101 to 1000 nM,1000 to 10000 nM
O=C(COc1cccc(NC2CCOCC2)c1)NCC(O)CN1CCc2ccccc2C1 (centres undefined),< 100 nM,< 100 nM,1000 to 10000 nM
Cn1cnc2ccc(-c3ccnc(NCC(O)CN4CCc5ccccc5C4)c3)nc21 (centres undefined),< 100 nM,< 100 nM,1000 to 10000 nM

SMILES,IC50 (PRMT5/MEP50 complex),EC50 [1],EC50 [2]
CN1CCC(c2cccc(C(=O)NCC(O)CN3CCc4ccccc4C3)c2)C1 (centres undefined),< 100 nM,101 to 1000 nM,10000 to 50000 nM
OC(COc1cccc(-c2ccccc2Cl)c1)CN1CCc2ccccc2C1 (centres undefined),101 to 1000 nM,1000 to 10000 nM,10000 to 40000 nM
CC(=O)N1CCN(c2ccccc2OCC(=O)NCC(O)CN2CCc3ccccc3C2)CC1 (centres undefined),< 100 nM,101 to 1000 nM,10000 to 50000 nM
O=C(COc1ccccc1N1CCOCC1)NC[C@H](O)CN1CCc2ccccc2C1,< 100 nM,< 100 nM,1000 to 10000 nM
Cn1ccc2cnc(-c3cccc(OCC(O)CN4CCc5ccccc5C4)c3)nc21 (centres undefined),< 100 nM,101 to 1000 nM,> 20000 nM
CN(C)CCOc1cccc(C(=O)NCC(O)CN2CCc3ccccc3C2)c1 (centres undefined),< 100 nM,101 to 1000 nM,10000 to 50000 nM
N#Cc1cccc(-c2cccc(OCC(O)CN3CCc4ccccc4C3)c2)c1 (centres undefined),101 to 1000 nM,1000 to 10000 nM,> 20000 nM
CN1CCN(S(=O)(=O)c2ccccc2OCC(=O)NCC(O)CN2CCc3ccccc3C2)CC1 (centres undefined),< 100 nM,101 to 1000 nM,10000 to 50000 nM
O=C(NCC(O)CN1CCc2ccccc2C1)c1cccc(C2CCCN2)c1 (centres undefined),101 to 1000 nM,1000 to 10000 nM,> 20000 nM
CC(=O)Nc1ccccc1OCC(=O)NCC(O)CN1CCc2ccccc2C1 (centres undefined),101 to 1000 nM,101 to 1000 nM,> 20000 nM
Cn1cnc2ccc(-c3ccnc(NC[C@H](O)CN4CCc5ccccc5C4)c3)cc21,< 100 nM,101 to 1000 nM,1000 to 10000 nM
O=C(COc1ccccc1-c1cc[nH]n1)NC[C@H](O)CN1CCc2ccccc2C1,< 100 nM,101 to 1000 nM,> 20000 nM
OC(COc1cccc(-c2ccc3cnoc3c2)c1)CN1CCc2ccccc2C1 (centres undefined),1000 to 10000 nM,10000 to 40000 nM,> 20000 nM
CN(c1cccc(OCC(=O)NCC(O)CN2CCc3ccccc3C2)c1)S(C)(=O)=O (centres undefined),101 to 1000 nM,101 to 1000 nM,> 20000 nM
Cn1ncc2c(OCC(=O)NCC(O)CN3CCc4ccccc4C3)cccc21 (centres undefined),< 100 nM,< 100 nM,1000 to 10000 nM
CC(C)(C)OCc1cccc(-c2cccc(OCC(O)CN3CCc4ccccc4C3)c2)c1 (centres undefined),101 to 1000 nM,1000 to 10000 nM,> 20000 nM
CN(C)c1ncc(-c2cccc(OCC(O)CN3CCc4ccccc4C3)c2)cn1 (centres undefined),101 to 1000 nM,1000 to 10000 nM,10000 to 40000 nM
OC(CNc1cc(-c2ncc3ccn(C4CNC4)c3n2)ccn1)CN1CCc2ccccc2C1 (centres undefined),< 100 nM,101 to 1000 nM,1000 to 10000 nM
NS(=O)(=O)c1ccccc1OCC(=O)NCC(O)CN1CCc2ccccc2C1 (centres undefined),< 100 nM,101 to 1000 nM,1000 to 10000 nM
CN1CCC(n2cnc3ccc(-c4cccc(OCC(O)CN5CCc6ccccc6C5)c4)cc32)CC1 (centres undefined),< 100 nM,101 to 1000 nM,1000 to 10000 nM
N#Cc1ccc(OCC(=O)NCC(O)CN2CCc3ccccc3C2)cc1 (centres undefined),101 to 1000 nM,101 to 1000 nM,10000 to 50000 nM
O=C1CN(c2cccc(N3CCOCC3)c2)CCN1CC(O)CN1CCc2ccccc2C1 (centres undefined),< 100 nM,< 100 nM,1000 to 10000 nM
Cn1ncc2cnc(-c3cccc(OCC(O)CN4CCc5ccccc5C4)c3)cc21 (centres undefined),101 to 1000 nM,101 to 1000 nM,10000 to 40000 nM

SMILES,IC50 (PRMT5/MEP50 complex),EC50 [1],EC50 [2]
Cn1cnc(C(=O)Nc2cccc(OCC(O)CN3CCc4ccccc4C3)c2)c1 (centres undefined),1000 to 10000 nM,1000 to 10000 nM,> 20000 nM
C[C@H](Oc1cccc2cccnc12)C(=O)NC[C@H](O)CN1CCc2ccccc2C1,< 100 nM,101 to 1000 nM,1000 to 10000 nM
CS(=O)(=O)N1CCN(c2ccccc2OCC(=O)NCC(O)CN2CCc3ccccc3C2)CC1 (centres undefined),101 to 1000 nM,101 to 1000 nM,> 20000 nM
O=C(COc1ccccc1-c1cc[nH]n1)NC[C@@H](O)CN1CCc2ccccc2C1,< 100 nM,< 100 nM,1000 to 10000 nM
O=C(COc1c(CN2CCOCC2)ccc2cccnc12)NC[C@H](O)CN1CCc2ccccc2C1,< 100 nM,101 to 1000 nM,10000 to 50000 nM
O=C(COc1ccccc1C1CCNC1)NCC(O)CN1CCc2ccccc2C1 (centres undefined),1000 to 10000 nM,1000 to 10000 nM,> 20000 nM
Cn1cnc2c1CN(c1cccc(OCC(O)CN3CCc4ccccc4C3)c1)CC2 (centres undefined),101 to 1000 nM,1000 to 10000 nM,> 20000 nM
O=C(NCC(O)CN1CCc2ccccc2C1)c1cccc(-c2cccnc2)c1 (centres undefined),< 100 nM,< 100 nM,1000 to 10000 nM
OC(COc1cccc(-c2cccc3cccnc23)c1)CN1CCc2ccccc2C1 (centres undefined),< 100 nM,101 to 1000 nM,10000 to 40000 nM
O=C(COc1ccccc1S(=O)(=O)N1CCCC1)NCC(O)CN1CCc2ccccc2C1 (centres undefined),< 100 nM,< 100 nM,101 to 1000 nM
OC(COc1cccc(-c2cccnc2F)c1)CN1CCc2ccccc2C1 (centres undefined),101 to 1000 nM,1000 to 10000 nM,> 20000 nM
Cn1cncc1C(=O)Nc1cccc(OC[C@H](O)CN2CCc3ccccc3C2)c1,101 to 1000 nM,101 to 1000 nM,10000 to 40000 nM
OC(COc1cccc(-c2ccccc2Oc2ccccc2)c1)CN1CCc2ccccc2C1 (centres undefined),101 to 1000 nM,1000 to 10000 nM,> 20000 nM
OC(COc1cccc(-c2cccc3c2oc2ccccc23)c1)CN1CCc2ccccc2C1 (centres undefined),101 to 1000 nM,1000 to 10000 nM,10000 to 40000 nM
O=C1CN(c2cccc(F)c2)CCN1CC(O)CN1CCc2ccccc2C1 (centres undefined),< 100 nM,101 to 1000 nM,> 20000 nM
OC(COc1cccc(-c2ccc3ncn(C4CCOCC4)c3c2)c1)CN1CCc2ccccc2C1 (centres undefined),101 to 1000 nM,101 to 1000 nM,1000 to 10000 nM
COc1ccc(-c2cccc(OCC(O)CN3CCc4ccccc4C3)c2)cc1Cl (centres undefined),101 to 1000 nM,10000 to 40000 nM,> 20000 nM
O=C(COc1cccc2cccnc12)NCC(O)CN1CCc2ccccc2C1 (centres undefined),< 100 nM,< 100 nM,101 to 1000 nM
CN(C)c1ccc2cccc(OCC(=O)NC[C@H](O)CN3CCc4ccccc4C3)c2n1,101 to 1000 nM,1000 to 10000 nM,> 20000 nM
CN1CCN(c2ccccc2OCC(=O)NC[C@H](O)CN2CCc3ccccc3C2)CC1,< 100 nM,101 to 1000 nM,1000 to 10000 nM
CC(=O)Nc1cccc(C(=O)NCC(O)CN2CCc3ccccc3C2)c1 (centres undefined),101 to 1000 nM,101 to 1000 nM,10000 to 50000 nM
O=c1[nH]c2ccc(-c3cccc(OCC(O)CN4CCc5ccccc5C4)c3)cc2[nH]1 (centres undefined),101 to 1000 nM,101 to 20000 nM,10000 to 20000 nM
